What follows are compounds tested on FADD-deficient Jurkat cells (assay: necroptosis assay: FADD-deficient Jurkat cells treated with TNFα, cell viability). Settings: FADD-deficient Jurkat cells treated with TNFα; call rule not given here.
Type: cell-based, human
Text: Herein we describe the structure activity analysis of Nec-5 analogs.
`N#CCSc1nc2sc3ccccc3c2c(=O)n1-c1ccc2c(c1)OCO2` [Compound 146] was tested, and the “activity in the necroptosis assay, in words” value was “potent inhibitor”. In the case of `N#CCSc1nc2sc3c(c2c(=O)n1-c1ccc(OC(F)(F)F)cc1)CCC3` [Compound 167], the “activity in the necroptosis assay, in words” value is reported as “showed some, albeit greatly reduced, activity”.

Same assay, conditions: effective concentration for half-maximum response; inhibition of necroptosis in FADD-deficient Jurkat cells treated with TNFα
In the case of `CSc1nc2sc3c(c2c(=O)n1-c1ccc(C)c(C)c1)CCC3` [Compound 142], the EC50 is reported as “inactive”. In the case of `CCOc1ccc(-n2c(SCC#N)nc3sc4ccccc4c3c2=O)cc1` [Compound 145], the EC50 is reported as “inactive”. In the case of `N#CCSc1nc2sc3ccccc3c2c(=O)n1-c1ccc(OC(F)(F)F)cc1` [Compound 147], the EC50 is reported as “inactive”. `CN(C)c1ccc(-n2c(SCC#N)nc3sc4ccccc4c3c2=O)cc1` [Compound 148] was tested, and the EC50 was “inactive”. For `CCOc1ccc(-n2c(SC)nc3sc4ccccc4c3c2=O)cc1` [Compound 151], the EC50 was “inactive”. In the case of `CSc1nc2sc3ccccc3c2c(=O)n1-c1ccc2c(c1)OCO2` [Compound 152], the EC50 is reported as “inactive”. `CSc1nc2sc3ccccc3c2c(=O)n1-c1ccc(OC(F)(F)F)cc1` [Compound 153] was tested, and the EC50 was “inactive”. For `Cc1sc2nc(SCC#N)n(-c3ccc(OCc4ccccc4)cc3)c(=O)c2c1C` [Compound 155], the EC50 was “inactive”. In the case of `Cc1sc2nc(SCC#N)n(-c3ccc(N(C)C)cc3)c(=O)c2c1C` [Compound 157], the EC50 is reported as “inactive”. With `CCOc1ccc(-n2c(SC)nc3sc(C)c(C)c3c2=O)cc1` [Compound 158] the EC50 was “inactive”. With `CSc1nc2sc(C)c(C)c2c(=O)n1-c1ccc(OCc2ccccc2)cc1` [Compound 159] the EC50 was “inactive”. With `CSc1nc2sc(C)c(C)c2c(=O)n1-c1ccc(OC(F)(F)F)cc1` [Compound 160] the EC50 was “inactive”. In the case of `CSc1nc2sc(C)c(C)c2c(=O)n1-c1ccc(N(C)C)cc1` [Compound 161], the EC50 is reported as “inactive”. With `N#CCSc1nc2sccc2c(=O)n1-c1ccccc1` [Compound 162] the EC50 was “inactive”. With `N#CCSc1nc2sc3c(c2c(=O)n1-c1ccccc1)CCC3` [Compound 163] the EC50 was “inactive”. For `CCOc1ccc(-n2c(SCC#N)nc3sc4c(c3c2=O)CCC4)cc1` [Compound 164], the EC50 was “inactive”. `N#CCSc1nc2sc3c(c2c(=O)n1-c1ccccc1)CCCCC3` [Compound 165] was tested, and the EC50 was “inactive”. `COc1ccc(-n2c(SCC#N)nc3sc4c(c3c2=O)CCC(C)C4)cc1OC` (centres unmarked) [Compound 166] was tested, and the EC50 was “inactive”. `N#CCSc1nc2sc3c(c2c(=O)n1-c1ccc(OC(F)(F)F)cc1)CCCCC3` [Compound 168] was tested, and the EC50 was “inactive”. `COc1ccc(-n2c(SCC#N)nc3sc4c(c3c2=O)CCC4)cc1OC` [Compound 169] was tested, and the EC50 was “inactive”. For `C=CCSc1nc2sc3c(c2c(=O)n1-c1ccccc1)CCCC3` [Compound 170], the EC50 was “inactive”. `O=c1c2c3c(sc2nc(SCc2ccccc2)n1-c1ccccc1)CCCC3` [Compound 171] was tested, and the EC50 was “inactive”. In the case of `CSc1nc2sccc2c(=O)n1-c1ccccc1` [Compound 173], the EC50 is reported as “inactive”. For `COc1ccc(-n2c(SC)nc3sc4c(c3c2=O)CCC(C)C4)cc1OC` (centres unmarked) [Compound 174], the EC50 was “inactive”. In the case of `CCSc1nc2sc3c(c2c(=O)n1-c1ccccc1)CCCCC3` [Compound 175], the EC50 is reported as “inactive”. For `C#CCSc1nc2sc(C)c(C)c2c(=O)n1-c1ccc2c(c1)OCO2` [Compound 176], the EC50 was “inactive”. For `C#CCSc1nc2sc(C)c(CC)c2c(=O)n1-c1ccc2c(c1)OCO2` [Compound 177], the EC50 was “inactive”. For `CCOc1ccc(-n2c(SC)nc3sc4c(c3c2=O)CCC4)cc1` [Compound 178], the EC50 was “inactive”. `CCc1c(C)sc2nc(SCCO)n(-c3ccc4c(c3)OCO4)c(=O)c12` [Compound 180] was tested, and the EC50 was “inactive”. `CCN1CCc2c(sc3nc(SC)n(-c4ccccc4)c(=O)c23)C1` [Compound 181] was tested, and the EC50 was “inactive”. With `CSc1nc2sc3c(c2c(=O)n1-c1ccc(OC(F)(F)F)cc1)CCC3` [Compound 182] the EC50 was “inactive”.

Same assay, conditions: effective concentration for half-maximum response; inhibition of necroptosis in FADD-deficient Jurkat cells treated with TNFα; read-out: EC50
`N#CCSc1nc2sc3ccccc3c2c(=O)n1-c1ccc(F)cc1` [Compound 144] was tested, and the EC50 was 3.06 µM. For `N#CCSc1nc2sc3ccccc3c2c(=O)n1-c1ccc2c(c1)OCO2` [Compound 146], the EC50 was 0.27 µM. With `CSc1nc2sc3ccccc3c2c(=O)n1-c1ccc(F)cc1` [Compound 150] the EC50 was 3.06 µM. For `CCOc1ccc(-n2c(SCC#N)nc3sc(C)c(C)c3c2=O)cc1` [Compound 154], the EC50 was 7.77 µM. Work on `Cc1sc2nc(SCC#N)n(-c3ccc(OC(F)(F)F)cc3)c(=O)c2c1C` [Compound 156] yielded an EC50 of 3.7 µM. `N#CCSc1nc2sc3c(c2c(=O)n1-c1ccc(OC(F)(F)F)cc1)CCC3` [Compound 167] was tested, and the EC50 was 3.7 µM.

Same assay, conditions: max viability obtained in the presence of a compound; FADD-deficient Jurkat cells treated with TNFα
In the case of `N#CCSc1nc2sc3ccccc3c2c(=O)n1-c1ccc2c(c1)OCO2` [Compound 146], the “Max Prot” value is reported as 100%. With `CN(C)c1ccc(-n2c(SCC#N)nc3sc4ccccc4c3c2=O)cc1` [Compound 148] the “Max Prot” value was “inactive”. `CCOc1ccc(-n2c(SCC#N)nc3sc(C)c(C)c3c2=O)cc1` [Compound 154] was tested, and the “Max Prot” value was 97%. In the case of `Cc1sc2nc(SCC#N)n(-c3ccc(OC(F)(F)F)cc3)c(=O)c2c1C` [Compound 156], the “Max Prot” value is reported as 63%. With `N#CCSc1nc2sc3c(c2c(=O)n1-c1ccc(OC(F)(F)F)cc1)CCC3` [Compound 167] the “Max Prot” value was 70%.
